US8877747B2, “Indenone derivative and pharmaceutical composition comprising same” (Korea Research Institute of Chemical Technology, priority 2009, dated 2014)
Structures can show the parent of a compound that is named as a salt.

Tested on: ovariectomized female SD rats
Assay: Bone density after ovariectomy, in-vivo micro-CT
Design: species or system rat
Details: oral once a day for 4 weeks
Source text: (§1) Most pharmacological effectiveness of therapeutic agents for osteoporosis has been evaluated using an animal, rather than a human. Particularly, as a model animal for osteoporosis occurring after menopause, ovariectomized female rats have been used for its similarity to women after menopause. To examine the effects of the indenone derivatives on the bone resorption, female SD rats and female DDY mice were subjected to ovariectomy. After the rats or mice were anesthetized by abdominally injecting 25 mg/kg of sodium pentobarbital (Choongwae pharma coporation), the fur of the abdominal region was shaved and the operation area was sterilized. About 1.5 cm of abdominal skin, abdominal muscle, and peritoneum were cut in the middle under aseptic condition, and ovary was exposed, followed by removal of both left and right ovaries after ligaturing of oviducts using silk threads. Then, peritoneum, abdominal muscle and skin were sutured with silk threads. The Sham group, animals operated upon for the surgery as in the ovariectomized rats except for removing ovary, was employed to compare the effects. […]

SMILES	Bone density (FIG. 3B)
O=C1C(c2cccnc2)=C(c2ccccc2)c2ccc(OCCN3CCOCC3)cc21 [Example 1, 6-(2-morpholinoethoxy)-3-phenyl-2-(pyridin-3-yl)-1H-inden-1-one hydrochloride salt]	significantly increased

Tested on: MC3T3-E1 cells
Assay: ALP activity, differentiation of osteoblast cells
Format: cell-based
Details: Mus musculus, MC3T3-E1, 144 h; MC3T3E1 cells treated with 10 μM compound and OF; relates activity to OF-only group (100%); higher = more efficacious
Method in brief: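 MC3T3-E1 cells were cultured 6 days at 37 °C in osteogenic medium (ascorbic acid, β-glycerophosphate) with compound at 0.1, 1 and 10 μM; medium and compound were renewed every 2-3 days. Freeze-thaw lysates were protein-normalised and ALP activity was read with 4-nitrophenylphosphate; DMSO and OF-only groups served as comparators.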

SMILES	activity at 10 µM [%]
O=C1C(c2cccnc2)=C(c2ccccc2)c2ccc(OCCN3CCOCC3)cc21 [Example 1, 6-(2-morpholinoethoxy)-3-phenyl-2-(pyridin-3-yl)-1H-inden-1-one hydrochloride salt]	455
COc1ccc(C2=C(c3ccc(F)cc3F)c3ccc(OCCN4CCS(=O)(=O)CC4)cc3C2=O)cc1F [Example 114, 2-(3-fluoro-4-methoxyphenyl)-3-(2,4-difluorophenyl)-6-[2-(1,1-dioxothiomorpholin-4-yl)ethoxy]-1H-inden-1-one]	286
O=C1C(c2cnc3ccccc3c2)=C(c2ccc(F)cc2F)c2ccc(OCCN3CCS(=O)(=O)CC3)cc21 [Example 115, 3-(2,4-difluorophenyl)-6-[2-(1,1-dioxothiomorpholin-4-yl)ethoxy]-2-(quinolin-3-yl)-1H-inden-1-one]	199
Cc1ccc(C2=C(c3ccc(F)cc3F)c3ccc(OCCN4CCN(S(C)(=O)=O)CC4)cc3C2=O)cc1 [Example 116, 3-(2,4-difluorophenyl)-6-{2-[4-(methylsulfonyl)piperazin-1-yl]ethoxy}-2-p-tolyl-1H-inden-1-one]	71
COc1ccc(C2=C(c3ccc(F)cc3F)c3ccc(OCCN4CCN(S(C)(=O)=O)CC4)cc3C2=O)cn1 [Example 117, 3-(2,4-difluorophenyl)-2-(6-methoxypyridin-3-yl)-6-{2-[4-(methylsulfonyl)piperazin-1-yl]ethoxy}-1H-inden-1-one]	98
COc1ccc(C2=C(c3ccc(F)cc3F)c3ccc(OCCN4CCN(S(C)(=O)=O)CC4)cc3C2=O)cc1F [Example 118, 2-(3-fluoro-4-methoxyphenyl)-3-(2,4-difluorophenyl)-6-{2-[4-(methylsulfonyl)piperazin-1-yl]ethoxy}-1H-inden-1-one]	311
CS(=O)(=O)N1CCN(CCOc2ccc3c(c2)C(=O)C(c2cnc4ccccc4c2)=C3c2ccc(F)cc2F)CC1 [Example 119, 3-(2,4-difluorophenyl)-6-{2-[4-(methylsulfonyl)piperazin-1-yl]ethoxy}-2-(quinolin-3-yl)-1H-inden-1-one]	170
Cc1ccc(C2=C(c3ccc(F)cc3F)c3ccc(OCCC4CCN(S(C)(=O)=O)CC4)cc3C2=O)cc1 [Example 120, 3-(2,4-difluorophenyl)-6-{2-[1-(methylsulfonyl)piperidin-4-yl]ethoxy}-2-p-tolyl-1H-inden-1-one]	169
COc1ccc(C2=C(c3ccc(F)cc3F)c3ccc(OCCC4CCN(S(C)(=O)=O)CC4)cc3C2=O)cn1 [Example 121, 3-(2,4-difluorophenyl)-2-(6-methoxypyridin-3-yl)-6-{2-[1-(methylsulfonyl)piperidin-4-yl]ethoxy}-1H-inden-1-one]	207
COc1ccc(C2=C(c3ccc(F)cc3F)c3ccc(OCCC4CCN(S(C)(=O)=O)CC4)cc3C2=O)cc1F [Example 122, 2-(3-fluoro-4-methoxyphenyl)-3-(2,4-difluorophenyl)-6-{2-[1-(methylsulfonyl)piperidin-4-yl]ethoxy}-1H-inden-1-one]	203
CS(=O)(=O)N1CCC(CCOc2ccc3c(c2)C(=O)C(c2cnc4ccccc4c2)=C3c2ccc(F)cc2F)CC1 [Example 123, 3-(2,4-difluorophenyl)-6-{2-[1-(methylsulfonyl)piperidin-4-yl]ethoxy}-2-(quinolin-3-yl)-1H-inden-1-one]	164
COc1ccc(C2=C(c3ccc(F)cc3F)c3ccc(OCCN4CCOCC4)cc3C2=O)cn1 [Example 125, 3-(2,4-difluorophenyl)-2-(6-methoxypyridin-3-yl)-6-[2-(morpholin-4-yl)ethoxy]-1H-inden-1-one]	63
COc1ccc(C2=C(c3ccc(F)cc3F)c3ccc(OCCN4CCOCC4)cc3C2=O)cc1F [Example 126, 2-(3-fluoro-4-methoxyphenyl)-3-(2,4-difluorophenyl)-6-[2-(morpholin-4-yl)ethoxy]-1H-inden-1-one]	73
O=C1C(c2cnc3ccccc3c2)=C(c2ccc(F)cc2F)c2ccc(OCCN3CCOCC3)cc21 [Example 127, 3-(2,4-difluorophenyl)-6-[2-(morpholin-4-yl)ethoxy]-2-(quinolin-3-yl)-1H-inden-1-one]	55

Tested on: ovariectomized female DDY mice
Assay: Bone density after ovariectomy, in-vivo micro-CT
Design: species or system mouse
Details: oral once a day for 4 weeks
Source text: as §1

SMILES	Bone density (FIG. 3A)
O=C1C(c2cccnc2)=C(c2ccccc2)c2ccc(OCCN3CCOCC3)cc21 [Example 1, 6-(2-morpholinoethoxy)-3-phenyl-2-(pyridin-3-yl)-1H-inden-1-one hydrochloride salt]	significantly increased
